Test results published in patent publication US4248887A, “Antibacterial compounds, processes for their preparation and compositions containing them” (priority 1978, dated 1981).
≈ marks a conversion by molar mass, not a printed value. Read-outs that look alike come from different tables or passages of the source.

Experiments:
H. influenzae Wy21 = assay: MIC by serial dilution in nutrient agar (human bacteria); settings: Haemophilus influenzae
[1] = test system: M. alkalescens NCTC 10135; assay: Anti-mycoplasma MIC; type: cell-based
M. bovis NCTC 10131 = assay: microbe, parasite or virus in culture; type: cell-based; settings: NCTC10131
M. hyorhinis ATCC 23234 = assay: Anti-mycoplasma MIC; type: cell-based; settings: Mesomycoplasma hyorhinis, ATCC23234
[2] = test system: M. suipneumoniae J2206/183b; assay: Anti-mycoplasma MIC; type: cell-based; settings: Mesomycoplasma hyopneumoniae, J2206/183B
M. dispar H225 = assay: Anti-mycoplasma MIC; type: cell-based
Staph. aureus Russell = assay: MIC by serial dilution in nutrient agar (human bacteria); settings: Staphylococcus aureus
Strep. dysgalactiae SPD1 = assay: MIC against veterinary bacteria; settings: Streptococcus dysgalactiae
B. subtilis = assay: MIC by serial dilution in nutrient agar (human bacteria); settings: Bacillus subtilis
H. influenzae Q1 = assay: as above; settings: Haemophilus influenzae
[3] = test system: Staph. aureus B4 (pen resistant); assay: MIC against veterinary bacteria; settings: Staphylococcus aureus
M. pneumoniae ATCC 15492 = assay: Anti-mycoplasma MIC; type: cell-based; settings: Mycoplasmoides pneumoniae, ATCC15492, M. pneumoniae ATCC 15492
Past. multocida PA2 = assay: MIC against veterinary bacteria; settings: Pasteurella multocida
Strep. pneumoniae CN33 = assay: MIC by serial dilution in nutrient agar (human bacteria); settings: Streptococcus pneumoniae
[4] = test system: M. hyosynoviae ATCC 25591; assay: Anti-mycoplasma MIC; type: cell-based
M. dispar NCTC 10125 = assay: Anti-mycoplasma MIC; type: cell-based
Staph. aureus 1517 = assay: MIC by serial dilution in nutrient agar (human bacteria); type: cell-based; settings: Staphylococcus aureus
Strep. pyogenes A 64/848 = assay: as above; settings: Streptococcus pyogenes, A64/848
[5] = test system: M. arthritidis ATCC 14124; assay: Anti-mycoplasma MIC; type: cell-based
Staph. aureus Oxford = assay: MIC by serial dilution in nutrient agar (human bacteria); settings: Staphylococcus aureus
M. synoviae ATCC 25204 = assay: Anti-mycoplasma MIC; type: cell-based; settings: Mycoplasmopsis synoviae, ATCC25204
Past. multocida PA1 = assay: MIC against veterinary bacteria; settings: Pasteurella multocida
M. bovis ATCC 25025 = assay: microbe, parasite or virus in culture; type: cell-based; settings: ATCC25025
Strep. uberis SPU1 = assay: MIC against veterinary bacteria; settings: Streptococcus uberis
[6] = test system: M. bovigenitalium ATCC 14173; assay: Anti-mycoplasma MIC; type: cell-based
M. fermentans MWKL4 = assay: Anti-mycoplasma MIC; type: cell-based; settings: Mycoplasmopsis fermentans
M. gallisepticum S6 = assay: Anti-mycoplasma MIC; type: cell-based; settings: Mycoplasmoides gallisepticum
Strep. pyogenes B 2788 = assay: MIC by serial dilution in nutrient agar (human bacteria); settings: Streptococcus pyogenes, B2788
Strep. pyogenes C 2761 = assay: as above; settings: Streptococcus pyogenes, C2761
Past. haemolytica PA5 = assay: MIC against veterinary bacteria; settings: Mannheimia haemolytica
M. suipneumoniae Str. 11 = assay: Anti-mycoplasma MIC; type: cell-based; settings: Mesomycoplasma hyopneumoniae, STR.11
Bord. bronchiseptica BO8 = assay: MIC against veterinary bacteria; settings: Bordetella bronchiseptica
M. pneumoniae 427a = assay: Anti-mycoplasma MIC; type: cell-based; settings: Mycoplasmoides pneumoniae
N. catarrhalis 1502 = assay: MIC by serial dilution in nutrient agar (human bacteria); settings: Neisseria
M. pulmonis JB = assay: Anti-mycoplasma MIC; type: cell-based; settings: Mycoplasmopsis pulmonis
Bord. bronchiseptica BO9 = assay: MIC against veterinary bacteria; settings: Bordetella bronchiseptica
Strep. agalactiae SPA1 = assay: MIC against veterinary bacteria; settings: Streptococcus agalactiae
Past. multocida 1633 = assay: MIC by serial dilution in nutrient agar (human bacteria); settings: Pasteurella multocida
[7] = test system: Staph. aureus 152 (pen sensitive); assay: MIC against veterinary bacteria; settings: Staphylococcus aureus
[8] = Agar (serial dilution in Friis' agar)
[9] = Broth (Friis' broth, microtiter method)
[10] = Agar (serial dilution in Friis' agar), read-out: MIC
[11] = Broth (Friis' broth, microtiter method), read-out: MIC

CCOC(=O)/C=C(\C)CC1OCC(C/C=C/C(C)C(C)O)C(O)C1O (stereo not drawn) [Ethyl, Ethyl Monate C]
MIC (H. influenzae Wy21): 1 µg/mL (≈ 2.81 µM)
MIC [1]: 0.039 µg/mL (≈ 0.109 µM)
MIC (M. bovis NCTC 10131): 0.156 µg/mL (≈ 0.438 µM)
MIC (M. hyorhinis ATCC 23234): 2.5 µg/mL (≈ 7.01 µM)
MIC [2]: 10 µg/mL (≈ 28.1 µM)
MIC (M. dispar H225): 0.078 µg/mL (≈ 0.219 µM)
MIC (Staph. aureus Russell): 0.2 µg/mL (≈ 0.561 µM)
MIC (Strep. dysgalactiae SPD1): 20 µg/mL (≈ 56.1 µM)
MIC (B. subtilis): 1 µg/mL (≈ 2.81 µM)
MIC (H. influenzae Q1): 0.2 µg/mL (≈ 0.561 µM)
MIC [3]: 1.25 µg/mL (≈ 3.51 µM)
MIC (M. pneumoniae ATCC 15492; [8]): 5 µg/mL (≈ 14 µM)
MIC (M. pneumoniae ATCC 15492; [9]): 10 µg/mL (≈ 28.1 µM)
MIC (Past. multocida PA2): 5 µg/mL (≈ 14 µM)
MIC (Strep. pneumoniae CN33): 2.5 µg/mL (≈ 7.01 µM)
MIC [4]: 1.25 µg/mL (≈ 3.51 µM)
MIC (M. dispar NCTC 10125): 0.156 µg/mL (≈ 0.438 µM)
MIC (Staph. aureus 1517): 0.2 µg/mL (≈ 0.561 µM)
MIC (Strep. pyogenes A 64/848): 10 µg/mL (≈ 28.1 µM)
MIC [5]: > 10 µg/mL
MIC (Staph. aureus Oxford): 0.2 µg/mL (≈ 0.561 µM)
MIC (M. synoviae ATCC 25204): 0.039 µg/mL (≈ 0.109 µM)
MIC (Past. multocida PA1): 5 µg/mL (≈ 14 µM)
MIC (M. bovis ATCC 25025): 0.156 µg/mL (≈ 0.438 µM)
MIC (Strep. uberis SPU1): 5 µg/mL (≈ 14 µM)
MIC [6]: 0.078 µg/mL (≈ 0.219 µM)
MIC (M. fermentans MWKL4; [8]): 0.312 µg/mL (≈ 0.875 µM)
MIC (M. fermentans MWKL4; [9]): 0.156 µg/mL (≈ 0.438 µM)
MIC (M. gallisepticum S6; S6): > 10 µg/mL
MIC (Strep. pyogenes B 2788): 0.5 µg/mL (≈ 1.4 µM)
MIC (Strep. pyogenes C 2761): 5 µg/mL (≈ 14 µM)
MIC (Past. haemolytica PA5): 40 µg/mL (≈ 112 µM)
MIC (M. suipneumoniae Str. 11): 1.25 µg/mL (≈ 3.51 µM)
MIC (Bord. bronchiseptica BO8): > 80 µg/mL
MIC (M. pneumoniae 427a; [8]): 5 µg/mL (≈ 14 µM)
MIC (M. pneumoniae 427a; [9]): 10 µg/mL (≈ 28.1 µM)
MIC (N. catarrhalis 1502): 0.2 µg/mL (≈ 0.561 µM)
MIC (M. pulmonis JB; [8]): 0.039 µg/mL (≈ 0.109 µM)
MIC (M. pulmonis JB; [9]): 0.156 µg/mL (≈ 0.438 µM)
MIC (Bord. bronchiseptica BO9): 40 µg/mL (≈ 112 µM)
MIC (Strep. agalactiae SPA1): 20 µg/mL (≈ 56.1 µM)
MIC (Past. multocida 1633): 5 µg/mL (≈ 14 µM)

C/C(=C\C(=O)OCC(C)C)CC1OCC(C/C=C/C(C)C(C)O)C(O)C1O (stereo not drawn) [Isobutyl, Isobutyl Monate C]
MIC (H. influenzae Wy21): 1 µg/mL (≈ 2.6 µM)
MIC [1]: 0.156 µg/mL (≈ 0.406 µM)
MIC (M. bovis NCTC 10131): 0.156 µg/mL (≈ 0.406 µM)
MIC (M. hyorhinis ATCC 23234; M. hyorhinis ATCC 23234, Agar (serial dilution in Friis' agar), read-out: MIC): 2.5 µg/mL (≈ 6.5 µM)
MIC [2]: 1.25 µg/mL (≈ 3.25 µM)
MIC (M. dispar H225; M. dispar H225, Broth (Friis' broth, microtiter method), read-out: MIC): 0.312 µg/mL (≈ 0.811 µM)
MIC (Staph. aureus Russell): 1 µg/mL (≈ 2.6 µM)
MIC (Strep. dysgalactiae SPD1): 5 µg/mL (≈ 13 µM)
MIC (B. subtilis): 1 µg/mL (≈ 2.6 µM)
MIC (H. influenzae Q1): 1 µg/mL (≈ 2.6 µM)
MIC [3]: 1.25 µg/mL (≈ 3.25 µM)
MIC (M. pneumoniae ATCC 15492; [10]): 10 µg/mL (≈ 26 µM)
MIC (M. pneumoniae ATCC 15492; [11]): 2.5 µg/mL (≈ 6.5 µM)
MIC (Past. multocida PA2): 10 µg/mL (≈ 26 µM)
MIC (Strep. pneumoniae CN33): 5 µg/mL (≈ 13 µM)
MIC ([4]; M. hyosynoviae ATCC 25591, Agar (serial dilution in Friis' agar), read-out: MIC): 0.625 µg/mL (≈ 1.63 µM)
MIC (M. dispar NCTC 10125; M. dispar NCTC 10125, Broth (Friis' broth, microtiter method), read-out: MIC): 0.312 µg/mL (≈ 0.811 µM)
MIC (Strep. pyogenes A 64/848): 10 µg/mL (≈ 26 µM)
MIC ([5]; M. arthritidis ATCC 14124, Agar (serial dilution in Friis' agar), read-out: MIC): 5 µg/mL (≈ 13 µM)
MIC (Staph. aureus Oxford): 0.5 µg/mL (≈ 1.3 µM)
MIC (M. synoviae ATCC 25204; M. synoviae ATCC 25204, Agar (serial dilution in Friis' agar), read-out: MIC): 0.078 µg/mL (≈ 0.203 µM)
MIC (Past. multocida PA1): 10 µg/mL (≈ 26 µM)
MIC (M. bovis ATCC 25025): 0.156 µg/mL (≈ 0.406 µM)
MIC (Strep. uberis SPU1): 1.25 µg/mL (≈ 3.25 µM)
MIC ([6]; M. bovigenitalium ATCC 14173, Agar (serial dilution in Friis' agar), read-out: MIC): 0.078 µg/mL (≈ 0.203 µM)
MIC (M. fermentans MWKL4; [10]): 0.312 µg/mL (≈ 0.811 µM)
MIC (M. fermentans MWKL4; [11]): 0.039 µg/mL (≈ 0.101 µM)
MIC (M. gallisepticum S6; M. gallisepticum S6, Agar (serial dilution in Friis' agar), read-out: MIC): > 10 µg/mL
MIC (Strep. pyogenes B 2788): 25 µg/mL (≈ 65 µM)
MIC [7]: 1.25 µg/mL (≈ 3.25 µM)
MIC (Strep. pyogenes C 2761): 25 µg/mL (≈ 65 µM)
MIC (Past. haemolytica PA5): 80 µg/mL (≈ 208 µM)
MIC (M. suipneumoniae Str. 11): 1.25 µg/mL (≈ 3.25 µM)
MIC (Bord. bronchiseptica BO8): > 80 µg/mL
MIC (M. pneumoniae 427a; [10]): 10 µg/mL (≈ 26 µM)
MIC (M. pneumoniae 427a; [11]): 1.25 µg/mL (≈ 3.25 µM)
MIC (N. catarrhalis 1502): 1 µg/mL (≈ 2.6 µM)
MIC (M. pulmonis JB; [10]): 0.078 µg/mL (≈ 0.203 µM)
MIC (M. pulmonis JB; [11]): < 0.02 µg/mL
MIC (Bord. bronchiseptica BO9): 40 µg/mL (≈ 104 µM)
MIC (Strep. agalactiae SPA1): 10 µg/mL (≈ 26 µM)
MIC (Past. multocida 1633): 5 µg/mL (≈ 13 µM)

COC(=O)/C=C(\C)CC1OCC(C/C=C/C(C)C(C)O)C(O)C1O (stereo not drawn) [Methyl, Methyl Monate C]
MIC (H. influenzae Wy21): 2.5 µg/mL (≈ 7.3 µM)
MIC [1]: 0.156 µg/mL (≈ 0.456 µM)
MIC (M. bovis NCTC 10131): 0.312 µg/mL (≈ 0.911 µM)
MIC (M. hyorhinis ATCC 23234): 1.25 µg/mL (≈ 3.65 µM)
MIC [2]: 2.5 µg/mL (≈ 7.3 µM)
MIC (M. dispar H225): 0.625 µg/mL (≈ 1.83 µM)
MIC (Staph. aureus Russell): 2.5 µg/mL (≈ 7.3 µM)
MIC (B. subtilis): 2.5 µg/mL (≈ 7.3 µM)
MIC (H. influenzae Q1): 1 µg/mL (≈ 2.92 µM)
MIC (M. pneumoniae ATCC 15492; [8]): > 10 µg/mL
MIC (M. pneumoniae ATCC 15492; [9]): 10 µg/mL (≈ 29.2 µM)
MIC (Strep. pneumoniae CN33): 25 µg/mL (≈ 73 µM)
MIC [4]: 5 µg/mL (≈ 14.6 µM)
MIC (M. dispar NCTC 10125): 0.312 µg/mL (≈ 0.911 µM)
MIC (Staph. aureus 1517): 2.5 µg/mL (≈ 7.3 µM)
MIC (Strep. pyogenes A 64/848): > 100 µg/mL
MIC [5]: > 10 µg/mL
MIC (Staph. aureus Oxford): 1 µg/mL (≈ 2.92 µM)
MIC (M. synoviae ATCC 25204): 0.156 µg/mL (≈ 0.456 µM)
MIC (M. bovis ATCC 25025): 0.312 µg/mL (≈ 0.911 µM)
MIC [6]: 0.156 µg/mL (≈ 0.456 µM)
MIC (M. fermentans MWKL4; [8]): 0.625 µg/mL (≈ 1.83 µM)
MIC (M. fermentans MWKL4; [9]): 0.312 µg/mL (≈ 0.911 µM)
MIC (M. gallisepticum S6; S6): > 10 µg/mL
MIC (Strep. pyogenes B 2788): 25 µg/mL (≈ 73 µM)
MIC (Strep. pyogenes C 2761): > 100 µg/mL
MIC (M. suipneumoniae Str. 11): 2.5 µg/mL (≈ 7.3 µM)
MIC (M. pneumoniae 427a; [8]): > 10 µg/mL
MIC (M. pneumoniae 427a; [9]): > 10 µg/mL
MIC (N. catarrhalis 1502): 1 µg/mL (≈ 2.92 µM)
MIC (M. pulmonis JB; [8]): 0.312 µg/mL (≈ 0.911 µM)
MIC (M. pulmonis JB; [9]): 0.156 µg/mL (≈ 0.456 µM)
MIC (Past. multocida 1633): 10 µg/mL (≈ 29.2 µM)
